Laboratory results from a melting point compilation (Tetko et al.; mined from patent text by program, amines drawn as free bases though some values may be those of a salt).

| Structure (SMILES) | melting point |
| --- | --- |
| CCOC(=O)C[C@@H]1CCC/C1=C\Cc1c(O)c2c(c(C)c1CC)COC2=O | 95 to 95.7 °C |
| NC(=S)CN1CCCC1=S | 154 to 156 °C |
| Cc1ccc2c(c1)[nH]c(=O)n2CCO | 159 °C |
| NS(=O)(=O)OCCOc1ccc(OCc2ccccc2)cc1 | 125 to 128 °C |
| CC1=NSc2c(F)c(F)c(F)c(F)c2N1Cc1ccc(-c2ccccc2C(=O)OC(C)(C)C)cc1 | 177 to 179 °C |
| COc1cc2c(cc1OC)C(Oc1ccccc1)CN(CCCOc1ccccc1)CC2 (stereo unspecified) | 95 to 100 °C |
| COc1ccc2c(=O)c(-c3ccccc3)c(SCc3ccccc3)oc2c1 | 153 to 154 °C |
| CN(C)C(=O)C1CCCN(c2cc3ccccc3c(=O)[nH]2)C1 (stereo unspecified) | 187 to 188 °C |
| CN(C)CCCn1cc(Br)c2c3c(c(-c4ccccc4Cl)cc21)C(=O)NC3=O | 160 to 162 °C |
| N#Cc1ccc(CCNC(=O)CC(=O)O)cc1 | 137 to 139 °C |
| Cc1c(-c2ccncc2)[nH]c(-c2ccncc2)c1C(=O)OC(C)(C)C | 265 to 267 °C |
| CN1C=NC(Cc2ccccc2)(Cc2ccccc2)C1=O | 125 to 126 °C |
| O=C1CC(C(F)(F)F)CC(=O)N1c1cc(OCC=C(Cl)Cl)c(Cl)cc1F | 106 to 108 °C |
| CCc1n[nH]c(CC)c1CCCCCOc1ccc(OC)cc1Cl | 80 to 83 °C |
| CC(C)(C)c1cc(-c2csc(CN3CCOCC3)n2)cc(C(C)(C)C)c1O | 137 °C |
| Cc1nc(N)nc(N)c1-c1ccc(F)cc1F | 291 to 296 °C |
| O=c1nc(-c2ccccc2)oc2ccccc12 | 104 to 105 °C |
| Cc1noc(NS(=O)(=O)c2ccccc2-c2ccc(-c3ncco3)cc2CN2CCN(C)C2=O)c1C | 105 to 115 °C |
| COC(=O)[C@H](Cc1ccc(NC(=O)c2c(Cl)cccc2Cl)cc1)NC(=S)C1(CCCSC)CCC1 | 184 to 186 °C |
| COc1cc(Nc2c(C#N)cnc3cc(C#C[Si](C)(C)C)sc23)c(Cl)cc1Cl | 169 to 171 °C |
| CC(C)C[C@H](NC(=O)OCc1ccccc1)C(=O)N[C@@H](Cc1ccccc1)C(=O)CSCCCl | 77 to 80 °C |
| COC(=O)CC1Sc2ccc([N+](=O)[O-])cc2CN(CCc2ccccc2)C1=O (stereo unspecified) | 205 to 208 °C |
| COCc1cccc(C(C#N)c2nc(OC)cc(OC)n2)c1[N+](=O)[O-] (stereo unspecified) | 112 to 113 °C |
| COc1ccc(C)cc1NC(=O)Nc1ccc(C2=CCN(C(=O)Nc3ccc(OCC(O)CO)cc3C(F)(F)F)CC2)cc1 (stereo unspecified) | 135 to 137 °C |
| N#Cc1cccc(-c2c(C(N)=O)c3n(c2Cl)CCNC3)c1 | 151 to 153 °C |
| COC(=O)C1=C(SC)N(c2c(C)cc(C)cc2Cl)CCC1 | 85.3 to 87.6 °C |

| Structure (SMILES) | melting point |
| --- | --- |
| O=C(O)C(CC(=O)N1CCOCC1)NS(=O)(=O)c1ccc(-c2ccc(Cl)cc2)cc1 (stereo unspecified) | 144 to 146 °C |
| Cc1ccc([N+](=O)[O-])c(C)c1C(=O)O | 109 to 112 °C |
| Cc1ccc(-c2ccnc3c(C(N)=O)ncn23)cc1 | 263 to 266 °C |
| Cc1noc(C)c1S(=O)(=O)n1c(=O)sc2ccccc21 | 140 to 144 °C |
| CCC(O)(c1ccc(OCc2ccccc2)cc1)c1cccc(C(F)(F)F)c1 (stereo unspecified) | 50 to 51 °C |
| COC(=O)c1ccccc1-c1ccc(COc2cc(C)nc3cccnc23)cc1 | 132 to 134 °C |
| CC(C)(C)C(=O)c1c[nH]c2ncc(-c3ccccn3)nc12 | 276 to 278 °C |
| N#Cc1c(N2CCN(C(=O)c3cccs3)CC2)c2cc(Cl)cnc2[nH]c1=O | 158 °C |
| COc1cc2cn[nH]c(=O)c2cc1OC | 254 to 256 °C |
| CC(C)(C)c1c(C(=O)NC2C3CC4CC(C3)CC2C4)cnn1-c1ccc(C(=O)O)cc1 (stereo unspecified) | 309 °C |
| COc1cccc(C2=C(CO)C(=O)N(C)CC2)c1 | 81 to 83 °C |
| O=C(O)CC(Sc1cccs1)C(=O)O (stereo unspecified) | 136 to 138 °C |
| Cc1cc(-c2ccc(C(F)(F)F)nc2)nc(-c2cccc(-c3cccc(S(N)(=O)=O)c3)c2)n1 | 220 °C |
| OCc1cc2c(cn1)[nH]c1ccccc12 | 228 to 230 °C |
| CC(=O)OCc1c(C(=O)C(=O)O)c2cc(-c3ccc(OC(F)(F)F)cc3)ccc2n1Cc1ccccc1 | 85 to 86 °C |
| O=C(O)c1cc(F)c(F)c(F)n1 | 81 to 82 °C |
| N#Cc1c(Cl)csc1NC=O | 241 °C |
| COc1ccc2cccc(C=CN3C(=O)c4ccccc4C3=O)c2c1 | 146 °C |
| CCOC(=O)CN(CP(=O)(ONNc1ccccc1)ONNc1ccccc1)C(=O)C(F)(F)F | 113 to 116 °C |
| CC(=O)OCC(=O)Nc1cccc(NC(=O)COC(C)=O)c1C#N | 151 to 153 °C |
| CC(=O)c1ccc(C2=CC3CCCC3C2=O)cc1 (stereo unspecified) | 76 to 77 °C |
| O=C(Nc1ccc2ccc(Cl)nc2n1)Oc1ccccc1 | 208 °C |
| O=C1OCc2c(Cl)cccc21 | 80 to 82 °C |
| COCCSc1sc(-c2cc[nH]n2)c2c1C(=O)CC(C)(C)C2 | 159 to 162 °C |
| N#Cc1c(N2CCN(C(=O)c3cccs3)CC2)c2cscc2n(-c2cccnc2)c1=O | 282 °C |
| O=C(NCc1cccc([N+](=O)[O-])c1)Nc1ccccc1 | 153 to 156 °C |

| Structure (SMILES) | melting point |
| --- | --- |
| COc1nccc2c([N+](=O)[O-])c(C)ccc12 | 94 °C |
| COc1cccc2c(NCc3ccccc3C)nc(Cl)nc12 | 279 to 281 °C |
| CCOC(=O)C1=CNc2ccc(C(F)(F)F)cc2CC1c1ccccc1Cl (stereo unspecified) | 190 to 192 °C |
| Nc1nc(N)c(CCCC(CO)c2ccc(C(=O)N[C@@H](CCC(=O)O)C(=O)O)cc2)c(O)n1 (stereo partly specified) | 164 °C |
| C#CCn1ccc(C(=O)OC)c1C=NO | 88 to 90 °C |
| Cc1c(NC(=O)CC(C)(C)C)c2c(c3c1C(c1ccc(C(C)C)cc1)CO3)CCCC2 (stereo unspecified) | 183 to 184 °C |
| C=CCOc1ccc(NC(=O)CC(C#N)=C(C)O)cc1 | 162 to 164 °C |
| O=S(=O)(N[C@H]1CC[C@H](CCN2CCN(c3nccc4c3OCC4)CC2)CC1)c1ccccc1 | 122 °C |
| COCn1nc(N)c2cc(S(=O)(=O)C(C)C)cc(OCCc3ccccn3)c21 | 140 to 142 °C |
| COC(=O)N1C(C)=NC(C)=C(C(=O)NCCCN2CCC(C(=O)OC)(c3ccccc3)CC2)C1c1ccc(F)c(F)c1 (stereo unspecified) | 55 to 57 °C |
| NS(=O)(=O)c1cnc(-c2ccccc2)s1 | 209 to 210 °C |
| Cc1c(C)c([N+](=O)[O-])c(C)c2c1OC(C)(C)C2c1ccc(F)cc1 (stereo unspecified) | 94 to 95 °C |
| Clc1ccc(C2CN3CCN=C3c3ccccc32)cc1 (single isomer, unassigned; (-)) | 184 °C |
| O=C(c1ccccc1)c1cccc2c(CC(C(=O)O)C(=O)O)c[nH]c12 | 188 to 189 °C |
| Cc1nccc2[nH]c(=O)c(C#N)cc12 | 275 to 277 °C |
| C[Si](C)(C)OCc1cccc2c1c1c(c3ccccc32)-c2c(c3ccccc3c3ccccc23)C1 | 130 to 131 °C |
| CC1Cc2cc(C(O)C(C)N3CCC(n4c(=O)[nH]c5ccccc54)CC3)ccc2S1 (stereo unspecified) | 220 to 222 °C |
| O=Cc1cccc(/C=C/c2ccc3ccc(Cl)cc3n2)c1 | 146 to 150 °C |
| O=C(CCCC=CCC1C(O)CC(O)C1C=CC(O)CCc1ccccc1)ON1C(=O)c2ccccc2C1=O (stereo unspecified) | 83.2 to 84.5 °C |
| Cc1c(Cl)c(=O)n2c3c(cc(C(O)(C(F)(F)F)C(F)(F)F)cc13)CCC2 | 266 to 268 °C |
| O=c1[nH]c(=O)n(C2CC2)c2nc(S(=O)(O)=S)c(F)cc12 | 300 to 302 °C |
| C=CC(=O)OCCOC(=O)Cc1cc(O)n2ncnc2n1 | 108 to 109 °C |
| CCc1c(Sc2cc(C)cc(C)c2)n(CC2CC=CC2)c(=O)[nH]c1=O | 128 to 130 °C |
| COc1cc(N)c(Cl)cc1C(=O)N[C@H]1CCN(CCCNc2nc3ccccc3s2)C[C@H]1OC (relative stereo) | 162 °C |
| Cc1cccc2c(-c3ccccc3)onc12 | 73 to 75 °C |
| COc1ccc2c(Cc3c(Cl)cncc3Cl)nncc2c1C#CCCCc1ccccc1 | 130 to 132 °C |

| Structure (SMILES) | melting point |
| --- | --- |
| Cc1oc(-c2ccco2)nc1COc1ccc(CO)cc1 | 91 to 92 °C |
| CCCc1nn(C)c2c(=S)[nH]c(-c3cc(S(=O)(=O)N4C[C@@H](C)N[C@@H](C)C4)ccc3OCC)nc12 | 196 to 199 °C |
| Cc1c(=O)[nH]c(=O)n2cc(C(=O)O)sc12 | > 205 °C |
| CON=Cc1ccc2c(c1CN1CCN(C)CC1)OCO2 | 100 to 102 °C |
| CC(CC#N)n1nnc2cc3c(=O)n(C(C)Cn4ncnn4)nnc3cc2c1=O (stereo unspecified) | 105 to 108 °C |
| Cc1cc(Cl)ccc1-n1nc(O)c2[nH]c3cc(Cl)ccc3c(=O)c2c1=O | 279 to 281 °C |
| O=c1[nH]c2c(n1-c1ccccc1)CCCC2 | 220 °C |
| N#Cc1ccc(-c2ccc(OCCCCCCO)cc2)cc1 | 87 to 89 °C |
| COC(=O)C1CCC2C3CCC4CC(O)C(O)CC4(C)C3C(NC3CCCCC3)CC12C (stereo unspecified) | 199 to 202 °C |
| CS(=O)(=O)N1CCCn2c(nc3c(N)nc4c(c32)CCCC4)C1 | 270 to 272 °C |
| Cc1cnc(CCl)n2c1c(CCCl)c1ccccc12 | 160 to 161 °C |
| CCCCCCCCCCCCCCCCCCNC(=O)OC(=O)CCCCCCCCCCCCCCCCC | 84 °C |
| O=C1CCc2c(Cl)cc(F)cc21 | 94 to 96 °C |
| COc1cc2c(cc1Nc1ncc(Cl)c(Nc3ccccc3OC)n1)CCN(C(=O)CN(C)C)CC2 | 76 to 99 °C |
| CCOC(=O)C1(CCCC(=O)OC(C)(C)C)CCn2c(cc3ccccc32)C1=O (stereo unspecified) | 104 °C |
| O=c1[nH]c2cc(Cl)ccc2c(=O)n1-c1ccccc1 | > 300 °C |
| C=C(COc1ccc(C(=O)CCC(=O)O)cc1)COc1ccc(C(C)=O)c(O)c1CCC | 136 to 137 °C |
| COC(=O)NNc1ccccc1OCCSC | 92 to 94 °C |
| COc1ccn2c(C)c(CCc3ccc4nc(N)oc4c3)nc2c1 | 220 to 221 °C |
| CCCc1c(COc2ccc(C(=O)CCCCCCc3nnn[nH]3)cc2)ccc(C(C)=O)c1O | 134 to 137 °C |
| COC(=O)[C@H]1CC[C@H](n2ccn(-c3ccc(OCc4ccccc4)cc3)c2=O)CC1 | 183 to 185 °C |
| COC(=O)c1coc2ccc(C)cc12 | 40 to 41 °C |
| O=C1C(c2ccc(O)cc2)=C(c2ccccc2)c2ccc(O)cc21 | 100 to 110 °C |
